Assay [1] concerns the target T1, STM4351-199/200-cpYFP, SEQ ID NO: 22, expressed in the cytosol of HeLa cells (arginine-binding protein STM4351 derived from Salmonella Typhimurium, SEQ ID NO: 1 (Salmonella enterica, UniProt Q8ZKA9, INS199[…]).
T1 construct: expressed in cytosol of HeLa cells from pAAV plasmid
Briefly: dynamic monitoring of arginine transmembrane transport in HeLa cells. The format is cell-based. As to conditions: after 2 hours of starvation, 10 mM arginine, 20 minutes. The protocol:
• 1. PAAV-based arginine optical sensor plasmids were transfected into HeLa by using the transfection reagent Lipofectamine2000 (Invitrogen) and incubated in a cell incubator at 37° C. with 5% CO2. After the exogenous gene was fully expressed for 24˜36 hours, the fluorescence detection was performed. • 2. After induction of expression, adherent HeLa cells were washed three times with PBS and placed in HMS solution for fluorescence microscopy and microplate reader assays, respectively.
36 hours after transfection of HeLa cells with plasmids encoding cytosolically expressed optical sensor STM4351-199/200-cpYFP, cells were rinsed using PBS, placed in HMS solution, and then changes in the ratio of the fluorescence intensity at 528 nm emission excited at 420 nm to that at 528 nm emission excited at 485 nm were detected over 40 min. After 2 hours of starvation, the ratio 485/420 increased gradually after adding 10 mM arginine for 20 minutes, and the highest ratio was 2.2 times. Same as STM4351-105/110-cpYFP sensor and STM4351-200/203-cpYFP sensor.

Assay [2] concerns the target T2, STM4351-104/110-cpYFP, SEQ ID NO: 7 (arginine-binding protein STM4351 derived from Salmonella Typhimurium, SEQ ID NO: 1) (Salmonella enterica, UniProt Q8ZKA9, DELINS105-109[…]).
T2 construct: His-tag, pET28a, E. coli JM109(DE3), purified
In words: fluorescence spectra of sensor with and without arginine. As to conditions: 500 mM vs 0 mM arginine. It is filed as biochemical. The protocol:
(§1) • 1. The pET28a based arginine sensor plasmid was transformed into JM109 (DE3), incubated inverted overnight, and the clones were picked from the plates into 250 ml Erlenmeyer flasks, placed in a shaker at 37° C. and incubated at 220 rpm to OD=0.4-0.8, then 1/1000 (V/V) of IPTG (1 M) was added to induce expression at 18° C. for 24-36 h. • 2. Upon completion of inducible expression, cells were harvested by centrifugation at 4000 rpm for 30 min, resuspended in 50 mM phosphate buffer and disrupted ultrasonically until the broth were clear, centrifuged at 9600 rpm at 4° C. for 20 min. • 3. […] 100 μl 5 μM of protein solution was taken, incubated at 37° C. for 5 min, arginine was added to mix to a final concentration of 100 mM, respectively, the optical absorption of the protein at 340 nm was determined using a multifunctional fluorescence microplate reader. • 6. 100 μl 1 μM of fluorescent sensor solution was taken, incubated at 37° C. for 5 min, arginine was added for titration, and the fluorescence intensity of 528 nm emission after 485 nm fluorescence excitation of the protein was measured. The fluorescence excitation and emission determination of the samples were done using a multifunctional fluorescence microplate reader. • 7. […] Determination of the absorption and fluorescence spectra of the samples was done by spectrophotometer and spectrofluorometer. […]

Assay [3] concerns the target T3, STM4351-cpYFP fusion protein, insertion site 200/203, SEQ ID NO: 27 (arginine-binding protein STM4351 derived from Salmonella Typhimurium, SEQ ID NO: 1) (Salmonella enterica, UniProt Q8ZKA9, DELINS201-202[…]).
T3 construct: His-tag, pET28a, E. coli JM109(DE3), purified
Briefly: screening of purified fusion protein for arginine response. It is filed as biochemical. As to conditions: cpYFP at 200/203; 100 mM arginine vs without arginine. As to the method: (§2) • 1. The pET28a based arginine sensor plasmid was transformed into JM109 (DE3), incubated inverted overnight, and the clones were picked from the plates into 250 ml Erlenmeyer flasks, placed in a shaker at 37° C. and incubated at 220 rpm to OD=0.4-0.8, then 1/1000 (V/V) of IPTG (1 M) was added to induce expression at 18° C. for 24-36 h. • 2. Upon completion of inducible expression, cells were harvested by centrifugation at 4000 rpm for 30 min, resuspended in 50 mM phosphate buffer and disrupted ultrasonically until the broth were clear, centrifuged at 9600 rpm at 4° C. for 20 min. • 3. The centrifuged supernatant was used to obtain protein by purification through a self packed nickel column affinity chromatography column, and the protein obtained after nickel column affinity chromatography was further used to obtain protein dissolved in 20 mM MOPS buffer (pH 7.4) or phosphate buffer PBS. • 4. After purified arginine-binding protein muteins were subjected to SDS-PAGE, sensors were diluted to a protein solution having a final concentration of 5-10 μM using assay buffer (100 mm HEPES, 100 mM NaCl, pH 7.3) or phosphate buffer PBS. Arginine was formulated as a stock solution at a final concentration of 1 M with assay buffer (20 mM MOPS, pH 7.4) or phosphate buffer PBS. • 5. 100 μl 5 μM of protein solution was taken, incubated at 37° C. for 5 min, arginine was added to mix to a final concentration of 100 mM, respectively, the optical absorption of the protein at 340 nm was determined using a multifunctional fluorescence microplate reader. • 6. 100 μl 1 μM of fluorescent sensor solution was taken, incubated at 37° C. for 5 min, arginine was added for titration, and the fluorescence intensity of 528 nm emission after 485 nm fluorescence excitation of the protein was measured. The fluorescence excitation and emission determination of the samples were done using a multifunctional fluorescence microplate reader. • 7. 100 μl 1 μM of fluorescent sensor solution was taken, incubated at 37° C. for 5 min, and arginine was added to determine the absorption and fluorescence spectra of the sensor proteins. Determination of the absorption and fluorescence spectra of the samples was done by spectrophotometer and spectrofluorometer.

The target in assay [4] is T4, STM4351-cpYFP fusion protein, insertion site 199/200, SEQ ID NO: 22 (arginine-binding protein STM4351 derived from Salmonella Typhimurium, SEQ ID NO: 1) (Salmonella enterica, UniProt Q8ZKA9, INS199[…]).
T4 construct: His-tag, pET28a, E. coli JM109(DE3), purified
The description is as above. It is filed as biochemical. The conditions noted are these: cpYFP at 199/200; 100 mM arginine vs without arginine. The protocol:
as §2

Assay [5] has as its target T5, STM4351-cpYFP fusion protein, insertion site 107/111, SEQ ID NO: 15 (arginine-binding protein STM4351 derived from Salmonella Typhimurium, SEQ ID NO: 1) (Salmonella enterica, UniProt Q8ZKA9, DELINS108-110[…]).
T5 construct: His-tag, pET28a, E. coli JM109(DE3), purified
The description is as above. The format is biochemical. As to conditions: cpYFP at 107/111; 100 mM arginine vs without arginine. The protocol:
as §2

In assay [6] the target is T6, STM4351-cpYFP fusion protein, insertion site 105/110, SEQ ID NO: 11 (arginine-binding protein STM4351 derived from Salmonella Typhimurium, SEQ ID NO: 1) (Salmonella enterica, UniProt Q8ZKA9, DELINS107-109[…]).
T6 construct: His-tag, pET28a, E. coli JM109(DE3), purified
Described as above. It is filed as biochemical. As to conditions: cpYFP at 105/110; 100 mM arginine vs without arginine. As to the method: as §2

For assay [7], the target named is T7, STM4351-cpYFP fusion protein, insertion site 200/205, SEQ ID NO: 29 (arginine-binding protein STM4351 derived from Salmonella Typhimurium, SEQ ID NO: 1) (Salmonella enterica, UniProt Q8ZKA9, DELINS201-204[…]).
T7 construct: His-tag, pET28a, E. coli JM109(DE3), purified
The assay is described as above. It is filed as biochemical. The conditions noted are these: cpYFP at 200/205; 100 mM arginine vs without arginine. As to the method: as §2

Assay [8] concerns the target T8, STM4351-cpYFP fusion protein, insertion site 104/110, SEQ ID NO: 7 (arginine-binding protein STM4351 derived from Salmonella Typhimurium, SEQ ID NO: 1) (Salmonella enterica, UniProt Q8ZKA9, DELINS105-109[…]).
T8 construct: His-tag, pET28a, E. coli JM109(DE3), purified
Described as above. It is filed as biochemical. As to conditions: cpYFP at 104/110; 100 mM arginine vs without arginine. As to the method: as §2

The target in assay [9] is T9, STM4351-107/111-cpYFP variant S30N, SEQ ID NO: 40 (arginine-binding protein STM4351 derived from Salmonella Typhimurium) (Salmonella enterica, UniProt Q8ZKA9, DELINS108-110[…]/S30N).
T9 construct: His-tag, pET28a, E. coli JM109(DE3), purified
In words: fluorescence detection of mutated cpYFP optical sensor. The format is biochemical. As to conditions: S30N-107/111; detected according to Example 2. The protocol: as §1

Assay [10] addresses T10, STM4351-107/111-cpYFP variant D177N, SEQ ID NO: 41 (arginine-binding protein STM4351 derived from Salmonella Typhimurium) (Salmonella enterica, UniProt Q8ZKA9, D177N/DELINS108-110[…]).
T10 construct: His-tag, pET28a, E. coli JM109(DE3), purified
Described as above. It is filed as biochemical. As to conditions: D177N-107/111; detected according to Example 2. As to the method: as §1

Assay [11] concerns the target T3, STM4351-cpYFP fusion protein, insertion site 200/203, SEQ ID NO: 27 (arginine-binding protein STM4351 derived from Salmonella Typhimurium, SEQ ID NO: 1). In words: concentration gradient arginine detection (fluorescence ratio titration). The protocol:
as §2

The target of assay [12] is T4, STM4351-cpYFP fusion protein, insertion site 199/200, SEQ ID NO: 22 (arginine-binding protein STM4351 derived from Salmonella Typhimurium, SEQ ID NO: 1). Described as above. The protocol: as §2
In assay [13] the target is T6, STM4351-cpYFP fusion protein, insertion site 105/110, SEQ ID NO: 11 (arginine-binding protein STM4351 derived from Salmonella Typhimurium, SEQ ID NO: 1). The assay is described as above. As to the method: as §2
Assay [14] has as its target T7, STM4351-cpYFP fusion protein, insertion site 200/205, SEQ ID NO: 29 (arginine-binding protein STM4351 derived from Salmonella Typhimurium, SEQ ID NO: 1). Described as above. The protocol:
as §2

Assay [15] is described as follows: specific detection of 20 amino acids by arginine fluorescent sensors. It is filed as biochemical. The conditions noted are these: FIG. 8.

In the case of `N=C(N)NCCC[C@H](N)C(=O)O` [arginine], the “highest ratio 485/420” value in [1] is 2.2 times. In [2] (excited at 420 nm), the “decrease of fluorescence intensity excited at 420 nm” value is given as 1.4 times. In addition, the “increase in fluorescence intensity under excitation at 485 nm” value in assay [2] (excited at 485 nm) was 2.0 fold. The “response to arginine relative to control” value in [3], in assay [4], in assay [5], in assay [6], in [7] and in [8] was “more than 2 fold” throughout. For the same compound, the “response to arginine relative to control” value in [9] and in assay [10] was “more than 3 times” throughout. Also, the change amplitude in assay [11] was found to be 8.6 times; in assay [12], 11.0 times; in [13], 4.3 times; in [14] it was 3.0 times.

For the compound “199/201: arginine sensor: cpYFP inserted at site 199/201 of STM4351”, the specificity for arginine entry in assay [15] is recorded as “good specificity for arginine”.

These data come from patent US20230296616A1, “ARGININE FLUORESCENT PROBE, PREPARATION METHOD THEREFOR AND APPLICATION THEREOF” (East China University of Science and Technology, priority 2020, published 2023).
